Tests used:
[1] = target: T1, C-C chemokine receptor type 3 (Homo sapiens, UniProt P51677); test: Binding affinity to human CCR3 receptor
T1 sequence (P51677 whole entry): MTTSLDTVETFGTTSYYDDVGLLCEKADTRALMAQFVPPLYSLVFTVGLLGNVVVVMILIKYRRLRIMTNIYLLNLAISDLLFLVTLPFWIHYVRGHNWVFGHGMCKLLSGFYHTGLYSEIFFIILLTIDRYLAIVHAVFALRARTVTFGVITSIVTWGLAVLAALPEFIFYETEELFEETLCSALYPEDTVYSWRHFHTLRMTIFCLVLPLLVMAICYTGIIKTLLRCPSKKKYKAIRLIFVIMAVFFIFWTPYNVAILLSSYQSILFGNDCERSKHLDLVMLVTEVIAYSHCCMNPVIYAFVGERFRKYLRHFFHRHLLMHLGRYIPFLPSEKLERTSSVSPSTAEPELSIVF

[2] = Cmax in rat at 1 mg/kg, po; type: ADME, organism-based; set-up: dose 1 mg/kg, route oral; details: in vivo
[3] = Oral bioavailability in rat at 1 mg/kg, po; type: ADME, organism-based; details: in vivo
[4] = AUC in rat at 1 mg/kg, po; type: ADME, organism-based; set-up: dose 1 mg/kg, route oral; details: plasma
[5] = target: Voltage-gated inwardly rectifying potassium channel KCNH2 (Homo sapiens, UniProt Q12809); test: (§1) Inhibition of human ERG
[6] = target: hERG (KCNH2) (Homo sapiens, UniProt Q12809); test: as §1; details: human
[7] = Clearance in cynomolgus monkey at 1 mg/kg, iv; type: ADME, organism-based, Macaca fascicularis; set-up: dose 1 mg/kg, route intravenous; details: in vivo
[8] = Clearance in rat at 1 mg/kg, iv; type: ADME, organism-based; set-up: dose 1 mg/kg, route intravenous; details: in vivo
[9] = Fraction unbound in dog plasma; type: ADME, cell-free, Canis lupus familiaris
[10] = Half life in dog at 1 mg/kg, iv; type: ADME, organism-based, Canis lupus familiaris; set-up: dose 1 mg/kg, route intravenous; details: in vivo
[11] = Volume of distribution at steady state in dog at 1 mg/kg, iv; type: ADME, organism-based, Canis lupus familiaris; set-up: dose 1 mg/kg, route intravenous; details: in vivo, read-out: Vdss
[12] = target: Cytochrome P450 3A4 (Homo sapiens, UniProt P08684); test: Inhibition of liver CYP3A4; type: ADME, tissue-based
[13] = Fraction unbound in rat plasma; type: ADME, cell-free
[14] = AUC in cynomolgus monkey at 1 mg/kg, po; type: ADME, organism-based, Macaca fascicularis; set-up: dose 1 mg/kg, route oral; details: plasma
[15] = Intrinsic clearance in human liver microsomes assessed per mg of protein; type: ADME, Microsome; details: liver microsomes
[16] = target: C-C chemokine receptor type 2 (Homo sapiens, UniProt P41597); test: Binding affinity to human CCR2b receptor
[17] = Oral bioavailability in cynomolgus monkey at 1 mg/kg, po; type: ADME, organism-based, Macaca fascicularis; details: in vivo
[18] = target: Cytochrome P450 2C9 (Homo sapiens, UniProt P11712); test: Inhibition of liver CYP2C9; type: ADME, tissue-based
[19] = Half life in rat at 1 mg/kg, iv; type: ADME, organism-based; set-up: dose 1 mg/kg, route intravenous; details: in vivo
[20] = target: T2, C-C chemokine receptor type 6 (Homo sapiens, UniProt P51684); test: Binding affinity to human CCR6 receptor
T2 sequence (P51684 whole entry): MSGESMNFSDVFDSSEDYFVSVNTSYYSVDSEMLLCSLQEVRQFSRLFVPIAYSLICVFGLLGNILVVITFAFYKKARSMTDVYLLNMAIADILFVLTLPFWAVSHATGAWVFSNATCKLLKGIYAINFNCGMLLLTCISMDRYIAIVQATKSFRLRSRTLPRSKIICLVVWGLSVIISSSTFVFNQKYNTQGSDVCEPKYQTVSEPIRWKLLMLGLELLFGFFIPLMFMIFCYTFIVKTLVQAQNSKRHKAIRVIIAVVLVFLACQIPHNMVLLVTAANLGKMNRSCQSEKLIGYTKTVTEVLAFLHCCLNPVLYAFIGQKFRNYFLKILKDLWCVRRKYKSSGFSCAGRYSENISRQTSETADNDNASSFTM

[21] = target: T3, Cytochrome P450 1A2 (Homo sapiens, UniProt P05177); test: Inhibition of liver CYP1A2; type: ADME, tissue-based
T3 sequence (P05177 whole entry): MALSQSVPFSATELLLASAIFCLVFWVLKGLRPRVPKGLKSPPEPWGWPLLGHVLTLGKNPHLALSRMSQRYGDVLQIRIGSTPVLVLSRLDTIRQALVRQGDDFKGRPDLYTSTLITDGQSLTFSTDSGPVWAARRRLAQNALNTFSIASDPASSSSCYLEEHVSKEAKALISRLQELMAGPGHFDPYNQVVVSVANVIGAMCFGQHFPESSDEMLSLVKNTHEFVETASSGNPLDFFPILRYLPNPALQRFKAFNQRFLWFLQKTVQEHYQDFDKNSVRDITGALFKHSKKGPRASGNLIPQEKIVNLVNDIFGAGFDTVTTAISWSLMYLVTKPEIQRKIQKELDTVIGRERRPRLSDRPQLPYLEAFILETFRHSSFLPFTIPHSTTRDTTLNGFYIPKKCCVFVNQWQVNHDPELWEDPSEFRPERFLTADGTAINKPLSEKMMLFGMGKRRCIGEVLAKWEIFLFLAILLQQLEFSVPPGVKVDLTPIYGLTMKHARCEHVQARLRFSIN

[22] = Cmax in dog at 1 mg/kg, po; type: ADME, organism-based, Canis lupus familiaris; set-up: dose 1 mg/kg, route oral; details: in vivo
[23] = Volume of distribution at steady state in rat at 1 mg/kg, iv; type: ADME, organism-based; set-up: dose 1 mg/kg, route intravenous; details: in vivo, read-out: Vdss
[24] = target: Cytochrome P450 2D6 (Homo sapiens, UniProt P10635); test: Inhibition of liver CYP2D6; type: ADME, tissue-based
[25] = tested on: Human immunodeficiency virus; test: Antiviral activity against R5-tropic HIV Ba-L infected in human PBMC cells assessed as inhibition of viral replication; type: functional, organism-based; details: Human immunodeficiency virus 1, Ba-L
[26] = target: T4, C-C chemokine receptor type 1 (Homo sapiens, UniProt P32246); test: Binding affinity to human CCR1 receptor
T4 sequence (P32246 whole entry): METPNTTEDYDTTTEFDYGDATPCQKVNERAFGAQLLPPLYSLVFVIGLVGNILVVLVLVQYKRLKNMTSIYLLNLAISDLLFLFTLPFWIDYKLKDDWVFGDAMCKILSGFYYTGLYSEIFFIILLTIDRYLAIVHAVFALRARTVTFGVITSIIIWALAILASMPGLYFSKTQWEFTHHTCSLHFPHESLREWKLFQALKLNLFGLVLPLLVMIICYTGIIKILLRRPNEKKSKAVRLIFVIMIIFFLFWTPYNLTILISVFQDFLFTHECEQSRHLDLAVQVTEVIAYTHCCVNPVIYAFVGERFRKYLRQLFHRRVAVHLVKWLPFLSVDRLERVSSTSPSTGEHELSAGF

[27] = AUC in dog at 1 mg/kg, po; type: ADME, organism-based, Canis lupus familiaris; set-up: dose 1 mg/kg, route oral; details: plasma
[28] = Oral bioavailability in dog at 1 mg/kg, po; type: ADME, organism-based, Canis lupus familiaris; details: in vivo
[29] = target: Cytochrome P450 2C19 (Homo sapiens, UniProt P33261); test: Inhibition of liver CYP2C19; type: ADME, tissue-based
[30] = target: T5, C-C chemokine receptor type 4 (Homo sapiens, UniProt P51679); test: Binding affinity to human CCR4 receptor
T5 sequence (P51679 whole entry): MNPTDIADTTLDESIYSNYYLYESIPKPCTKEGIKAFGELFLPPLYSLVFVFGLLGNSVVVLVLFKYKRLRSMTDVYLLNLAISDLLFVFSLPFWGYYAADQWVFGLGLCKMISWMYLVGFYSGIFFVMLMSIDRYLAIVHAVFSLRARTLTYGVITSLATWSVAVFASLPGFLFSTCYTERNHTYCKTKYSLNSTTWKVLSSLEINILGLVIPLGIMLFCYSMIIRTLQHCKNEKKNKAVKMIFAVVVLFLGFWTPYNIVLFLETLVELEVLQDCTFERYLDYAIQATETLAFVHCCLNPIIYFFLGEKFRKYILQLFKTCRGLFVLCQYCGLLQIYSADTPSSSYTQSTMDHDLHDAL

[31] = Volume of distribution at steady state in cynomolgus monkey at 1 mg/kg, iv; type: ADME, organism-based, Macaca fascicularis; set-up: dose 1 mg/kg, route intravenous; details: in vivo, read-out: Vdss
[32] = target: C-X-C chemokine receptor type 4 (Homo sapiens, UniProt P61073); test: Binding affinity to human CXCR4
[33] = tested on: Canis familiaris; test: Clearance in dog at 1 mg/kg, iv; type: ADME, organism-based, Canis lupus familiaris; set-up: dose 1 mg/kg, route intravenous; details: in vivo
[34] = Half life in cynomolgus monkey at 1 mg/kg, iv; type: ADME, organism-based, Macaca fascicularis; set-up: dose 1 mg/kg, route intravenous; details: in vivo
[35] = Cmax in cynomolgus monkey at 1 mg/kg, po; type: ADME, organism-based, Macaca fascicularis; set-up: dose 1 mg/kg, route oral; details: in vivo
[36] = tested on: Human immunodeficiency virus 1; test: Antiviral activity against recombinant HIV1 virus infected in human JC53BL cells after 3 days; type: functional, organism-based; details: Human immunodeficiency virus 1, JC53BL, 72 h
[37] = Fraction unbound in monkey plasma; type: ADME, cell-free, Macaca mulatta; details: rhesus monkey
[38] = target: C-C chemokine receptor type 5 (Homo sapiens, UniProt P51681); test: Displacement of [125I]RANTES from human CCR5 receptor co-transfected with Galphai6 in CHO cells; type: cell-based
Chain of C-C chemokine receptor type 5 (P51681 whole entry): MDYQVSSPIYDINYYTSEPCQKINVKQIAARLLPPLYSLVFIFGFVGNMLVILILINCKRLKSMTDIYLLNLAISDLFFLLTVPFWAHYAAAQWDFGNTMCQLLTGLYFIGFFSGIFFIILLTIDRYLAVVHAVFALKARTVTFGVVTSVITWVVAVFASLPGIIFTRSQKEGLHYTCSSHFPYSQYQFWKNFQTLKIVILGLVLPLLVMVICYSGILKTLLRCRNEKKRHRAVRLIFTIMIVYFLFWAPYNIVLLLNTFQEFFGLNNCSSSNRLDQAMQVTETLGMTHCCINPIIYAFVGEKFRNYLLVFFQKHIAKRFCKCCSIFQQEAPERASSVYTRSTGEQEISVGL

Chain of Cytochrome P450 3A4 (P08684 whole entry): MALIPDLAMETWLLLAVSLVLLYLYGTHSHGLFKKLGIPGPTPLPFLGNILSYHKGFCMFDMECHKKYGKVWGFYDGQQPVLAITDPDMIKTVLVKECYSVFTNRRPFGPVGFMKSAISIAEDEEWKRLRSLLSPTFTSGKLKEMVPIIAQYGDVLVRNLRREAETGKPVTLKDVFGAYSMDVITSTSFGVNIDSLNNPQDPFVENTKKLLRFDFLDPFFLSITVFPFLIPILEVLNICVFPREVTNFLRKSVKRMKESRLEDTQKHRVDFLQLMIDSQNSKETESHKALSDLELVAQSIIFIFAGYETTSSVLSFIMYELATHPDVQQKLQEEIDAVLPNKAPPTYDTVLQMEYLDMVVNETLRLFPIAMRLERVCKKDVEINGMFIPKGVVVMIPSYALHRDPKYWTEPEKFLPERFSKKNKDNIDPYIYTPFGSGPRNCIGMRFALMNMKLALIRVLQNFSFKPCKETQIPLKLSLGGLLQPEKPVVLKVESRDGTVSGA
Chain of C-X-C chemokine receptor type 4 (P61073 whole entry): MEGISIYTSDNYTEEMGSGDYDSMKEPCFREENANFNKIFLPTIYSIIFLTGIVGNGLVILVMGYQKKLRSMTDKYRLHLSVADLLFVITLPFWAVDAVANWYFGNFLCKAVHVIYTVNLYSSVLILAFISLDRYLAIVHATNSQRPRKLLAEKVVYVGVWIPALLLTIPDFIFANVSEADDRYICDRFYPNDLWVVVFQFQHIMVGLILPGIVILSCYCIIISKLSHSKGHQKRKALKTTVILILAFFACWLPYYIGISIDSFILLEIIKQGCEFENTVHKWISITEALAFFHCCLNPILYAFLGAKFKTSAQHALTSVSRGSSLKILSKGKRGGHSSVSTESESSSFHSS
Chain of Cytochrome P450 2C9 (P11712 whole entry): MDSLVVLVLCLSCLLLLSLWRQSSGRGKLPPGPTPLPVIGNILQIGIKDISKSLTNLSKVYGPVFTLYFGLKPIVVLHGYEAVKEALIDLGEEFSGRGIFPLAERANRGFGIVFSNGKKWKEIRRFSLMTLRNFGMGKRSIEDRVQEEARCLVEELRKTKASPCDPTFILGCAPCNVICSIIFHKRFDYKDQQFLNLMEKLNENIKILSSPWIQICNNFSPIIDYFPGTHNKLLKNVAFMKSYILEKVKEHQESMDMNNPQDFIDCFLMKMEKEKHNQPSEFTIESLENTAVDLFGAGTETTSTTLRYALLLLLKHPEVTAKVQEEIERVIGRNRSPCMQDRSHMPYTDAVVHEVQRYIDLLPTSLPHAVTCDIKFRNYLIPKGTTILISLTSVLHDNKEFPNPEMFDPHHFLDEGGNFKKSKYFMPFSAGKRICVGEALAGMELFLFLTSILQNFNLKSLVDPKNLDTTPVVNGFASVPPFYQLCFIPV
Chain of C-C chemokine receptor type 2 (P41597 whole entry): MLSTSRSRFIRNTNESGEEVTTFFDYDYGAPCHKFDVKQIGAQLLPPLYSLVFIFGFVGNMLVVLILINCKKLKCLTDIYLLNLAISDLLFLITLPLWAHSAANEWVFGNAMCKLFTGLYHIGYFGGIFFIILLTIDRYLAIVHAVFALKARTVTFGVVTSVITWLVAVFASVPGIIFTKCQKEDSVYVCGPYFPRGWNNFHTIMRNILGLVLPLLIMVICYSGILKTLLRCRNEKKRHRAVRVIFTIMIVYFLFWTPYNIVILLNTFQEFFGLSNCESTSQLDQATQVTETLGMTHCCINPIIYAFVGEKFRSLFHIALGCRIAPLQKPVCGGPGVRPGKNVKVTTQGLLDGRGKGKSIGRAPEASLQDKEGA
Chain of Voltage-gated inwardly rectifying potassium channel KCNH2 (Q12809 whole entry): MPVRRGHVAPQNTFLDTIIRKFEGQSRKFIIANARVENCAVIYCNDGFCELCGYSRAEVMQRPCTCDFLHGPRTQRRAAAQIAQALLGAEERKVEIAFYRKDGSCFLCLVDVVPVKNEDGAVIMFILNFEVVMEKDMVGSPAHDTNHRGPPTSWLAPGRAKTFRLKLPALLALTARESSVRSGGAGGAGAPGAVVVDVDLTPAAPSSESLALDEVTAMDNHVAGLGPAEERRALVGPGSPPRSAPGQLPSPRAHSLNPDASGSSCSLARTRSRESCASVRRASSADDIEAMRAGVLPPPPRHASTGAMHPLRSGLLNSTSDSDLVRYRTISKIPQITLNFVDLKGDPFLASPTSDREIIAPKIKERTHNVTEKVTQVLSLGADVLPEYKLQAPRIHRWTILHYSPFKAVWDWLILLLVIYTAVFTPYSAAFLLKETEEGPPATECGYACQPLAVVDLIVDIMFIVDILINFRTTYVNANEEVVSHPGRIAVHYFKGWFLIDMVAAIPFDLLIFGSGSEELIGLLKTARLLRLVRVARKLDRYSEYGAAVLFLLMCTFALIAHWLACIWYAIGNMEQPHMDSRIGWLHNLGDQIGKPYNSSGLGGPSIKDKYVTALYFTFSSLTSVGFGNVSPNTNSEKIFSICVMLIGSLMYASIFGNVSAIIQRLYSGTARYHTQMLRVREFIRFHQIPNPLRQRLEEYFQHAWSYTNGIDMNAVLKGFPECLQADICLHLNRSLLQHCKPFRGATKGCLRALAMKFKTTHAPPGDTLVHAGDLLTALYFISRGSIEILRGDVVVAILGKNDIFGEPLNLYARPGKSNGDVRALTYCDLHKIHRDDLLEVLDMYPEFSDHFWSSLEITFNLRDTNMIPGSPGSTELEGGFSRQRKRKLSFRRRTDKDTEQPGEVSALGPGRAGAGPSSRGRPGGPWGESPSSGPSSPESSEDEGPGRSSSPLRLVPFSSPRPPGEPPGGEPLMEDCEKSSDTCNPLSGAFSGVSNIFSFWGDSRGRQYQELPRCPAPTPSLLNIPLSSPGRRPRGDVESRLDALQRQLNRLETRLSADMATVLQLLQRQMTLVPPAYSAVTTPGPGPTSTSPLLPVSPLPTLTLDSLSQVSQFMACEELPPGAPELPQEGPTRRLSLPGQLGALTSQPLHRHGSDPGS
Chain of hERG (KCNH2) (Q12809 whole entry): as above
Chain of Cytochrome P450 2C19 (P33261 whole entry): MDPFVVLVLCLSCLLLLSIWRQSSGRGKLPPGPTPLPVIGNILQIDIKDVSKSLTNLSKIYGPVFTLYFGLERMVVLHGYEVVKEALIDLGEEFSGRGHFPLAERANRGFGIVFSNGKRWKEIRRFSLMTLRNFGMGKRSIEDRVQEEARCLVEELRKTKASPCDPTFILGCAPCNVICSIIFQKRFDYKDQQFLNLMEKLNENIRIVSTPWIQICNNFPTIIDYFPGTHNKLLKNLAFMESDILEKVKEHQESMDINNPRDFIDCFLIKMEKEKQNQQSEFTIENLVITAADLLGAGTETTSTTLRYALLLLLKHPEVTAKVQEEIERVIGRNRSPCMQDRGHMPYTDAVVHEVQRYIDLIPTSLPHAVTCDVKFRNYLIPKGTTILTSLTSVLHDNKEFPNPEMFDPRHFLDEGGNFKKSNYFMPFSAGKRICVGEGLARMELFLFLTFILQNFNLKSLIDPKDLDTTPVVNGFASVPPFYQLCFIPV

IC50 [1]: > 50 µM
Cmax [2]: 13 ng/mL
bioavailability [3]: 10%
AUC [4]: 54 ng·h/mL
clearance [7]: 19 mL/min/kg
clearance [8]: 52 mL/min/kg
fraction unbound [9]: 0.13
half-life [10]: 2.9 h
Vd [11]: 3.2 L/kg
Activity [12]: Not Active
fraction unbound [13]: 0.32
AUC [14]: 396 ng·h/mL
microsomal CLint [15]: 12 µL/min/mg
IC50 [16]: > 50 µM
bioavailability [17]: 42%
Activity [18]: Not Active
half-life [19]: 1.4 h
IC50 [20]: > 50 µM
Activity [21]: Not Active
Cmax [22]: 225 ng/mL
Vd [23]: 3.8 L/kg
Activity [24]: Not Active
IC50 [25]: 0.00018 µM
IC50 [26]: > 50 µM
AUC [27]: 700 ng·h/mL
bioavailability [28]: 85%
Activity [29]: Not Active
IC50 [30]: > 50 µM
Vd [31]: 3 L/kg
IC50 [32]: > 50 µM
clearance [33]: 20 mL/min/kg
half-life [34]: 3.5 h
Cmax [35]: 42 ng/mL
IC50 [36]: 0.006 µM
fraction unbound [37]: 0.04
IC50 [38]: 0.025 µM
SMILES: CCCC[C@H]1CN(CC2CCOCC2)C(=O)OC12CCN(C1(C)CCN(C(=O)c3c(C)ncnc3C)CC1)CC2
IC50 [5]: 11.9 µM
IC20 [6]: 2.9 µM

From ChEMBL document CHEMBL1154224, “Spiropiperidine CCR5 antagonists” (Bioorg Med Chem Lett, 2009)
